Eleven compounds from US5021421A, “2-(1-Piperazinyl)-4-phenylcycloalkanopyridine derivatives, processes for the production thereof, and pharmaceutical composition containing the same” (Dainippon Pharmaceutical Co., Ltd., priority 1989, dated 1991) can be followed below.

As usually defined, the IC50 is the midpoint of a concentration-inhibition curve.

The target in one assay is T1, dopamine (D2) receptor (Rattus norvegicus, UniProt P61169).
T1 construct: Crude synaptosome fractions were prepared from some brain regions in rats for receptor sources; from tissue
Put plainly: In vitro binding to dopamine (D2) receptor, [3H] spiperone. Details: species or system rats. To be noted: [3H] spiperone, rat brain crude synaptosome fraction; read-out: IC50 D2. As to the method: (§1) Dopamine (D2), serotonin (S1, S2) and adrenaline (α1) receptor binding assays were carried out according to the methods of I. Creese et al. [Eur. J. Pharmacol., 46, 377 (1977), S. J. Peroutka et al. [Mol. Pharmacol. 16, 687 (1979)], J. E. Leysen et al. [Mol. Pharmacol., 21, 301 (1982)] and D. C. U'Prichard et al. [Mol. Pharmacol., 13, 454 (1977)], respectively.
(§2) Crude synaptosome fractions were prepared from some brain regions in rats for receptor sources. Radioactive ligands used were [^3 H] spiperone (D2), [^3 H] serotonin (S1), [^3 H] ketanserin (S2) and [^3 H] WB-4101 (α1). The binding assay was performed by incubating aliquots of synaptosome fraction in buffer solution (final volume: 1 ml) containing a [^3 H] labelled ligand and a test compound. The assay was terminated by rapid filtration through Whatman GF/B glass fiber filters attached to a cell-harvester (Brandel) and radioactivity on the filters was counted in a Packard Triscarb scintillation counter. Specific binding was calculated as a difference between amounts of radioactivity in the presence and absence of an unlabelled ligand [spiperone (D2), serotonin (S1), methysergide (S2) and prazosin (α1)]. The IC50 value of the test compounds (concentration causing 50% inhibition of [^3 H] ligand specific binding) was determined by probit analysis.

For another assay, the system named is exploratory activity. Put plainly: Inhibitory effect on exploratory activity (Animex activity meter). It counts as in vivo, mice (Std-ddy strain). The conditions noted are these: oral, 2 h after administration, 3 min counting; dose not given. The procedure:
A group of 5 male mice (Std-ddy strain, 20-25 g) was used. Two hours after oral administration of the test compound, mice were placed individually in a test box (23×35×30 cm) on Animex activity meter (Farad Co.). Immediately thereafter, activity counting was started and lasted for three minutes. The mean counts of the compound-treated group were compared with those of the corresponding control (non-dosed) group, and the percent inhibition was calculated.

The target of a further assay is T2, serotonin (S2) receptor (Rattus norvegicus, UniProt P14842).
T2 construct: Crude synaptosome fractions were prepared from some brain regions in rats for receptor sources; from tissue
Put plainly: In vitro binding to serotonin (S2) receptor, [3H] ketanserin. Further details: species or system rats. The conditions noted are these: [3H] ketanserin, rat brain crude synaptosome fraction. As to the method:
as §1, §2

The target of a further assay is adrenaline (α1) receptor. Briefly: In vitro binding to adrenaline (α1) receptor, [3H] WB-4101. Further details: species or system rats. The conditions noted are these: [3H] WB-4101, rat brain crude synaptosome fraction. The procedure:
as §1, §2

For assay [1], the system named is apomorphine-induced vomiting. Briefly: Antagonistic effect on apomorphine-induced vomiting. The class given is in vivo, dogs (Beagle). To be noted: Canis lupus familiaris, sc, apomorphine 0.3 mg/kg s.c. 2 h after compound, read-out: Inhibitory ratio (apomorphine-induced vomiting). As to the method: A group of 3-4 dogs (Beagle, 8-15 kg) was used for examining effects on the test compounds on apomorphine-induced vomiting, a known test for evaluating neuroleptic drugs.
Each dog was given a subcutaneous injection of apomorphine hydrochloride (0.3 mg/kg) two hours after the treatment of the test compounds. Then, the frequency of oral vomiting was counted for one hour. The mean counts of the compound-treated group were compared with those of the corresponding control (non-dosed) group, and the percent inhibition was calculated.

For assay [2], the system named is brain monoamine metabolites. Put plainly: Increasing effect on concentration of brain monoamine metabolites. It counts as in vivo, mice (Std-ddy strain). The conditions noted are these: Mus musculus, 2 h, non-dosed=100. As to the method:
A group of 5 male mice (Std-ddy strain, 25-30 g) was used for examining effect of the test compounds on concentration of brain monoamine metabolites.
Mice were killed by decapitation 2 hours after treatment with the test compounds. Brains were quickly taken out, homogenized in 1N formic acid-acetone solution, and centrifuged in a refrigerated ultracentrifuge. The supernatant was evaporated by blowing with N2 gas. Then, the residue was again resolved in 0.01 N acetic acid, and served for determining concentration of dopamine metabolites, 3,4-dihydroxyphenylacetic acid (DOPAC) and homovanillic acid (HVA), a norepinephrine metabolite, 3-methyl-4-hydroxyphenylethylene glycol (MOPEG), and a serotonin metabolite, 5-hydroxyindole-3-acetic acid (5-HIAA) concentrations by HPLC with electrochemical detection. The effect of the test compounds on concentration of each monoamine metabolite is shown as % of control (level of non-dosed animals=100) in Table 4.

The target of the next assay is serotonin (S1) receptor. Put plainly: In vitro binding to serotonin (S1) receptor, [3H] serotonin. Details: species or system rats. The conditions noted are these: rat brain crude synaptosome fraction. The procedure:
as §1, §2

The test system of assay [3] is scopolamine-induced deficit of spontaneous alternation. Put plainly: Improving effect on scopolamine-induced deficit of spontaneous alternation behavior (T-maze). It counts as in vivo, mice (Std-ddY strain). The conditions noted are these: dose 10.0 mg/kg i.p.; scopolamine hydrobromide 1 mg/kg i.p. An excerpt: A group of 15-25 male mice (Std-ddY strain, 22-28 g) was used for evaluating effect of the test compounds on scopolamine-induced deficit of spontaneous alternation in a T-maze, which is a known animal model of memory impairment due to hypofunction of the cholinergic nervous system. The T-maze used consists of a stem and two arms which are 25 cm long, 5 cm wide and 10 cm high. The first 10 cm of the stem and last 10 cm of each arm are divided by sliding doors into start and goal boxes.
A test compound and scopolamine hydrobromide (1 mg/kg) were intraperitoneally administered to each mouse, and after 30 minutes a test of spontaneous alternation task in the T-maze was continuously repeated for 8 trials. Commonly, naive mice alternate each (right and left) goal box in turn, but scopolamine-treated animals tend to enter the same goal box repeatedly. The effect of the test compounds was expressed as % improvement (complete improvement to the alternation level of non-dosed mice=100%).

The subject of assay [4] is cycloheximide-induced amnesia of passive avoidance response. Briefly: Improving effect on cycloheximide-induced amnesia of passive avoidance response. The class given is in vivo, mice (Std-ddY strain). The conditions noted are these: cycloheximide 60 mg/kg s.c., retention at 24 h. The text has this: Anti-amnesic effect of the test compounds was examined using mice given cycloheximide, which is a known amnesia-inducing agent.
A group of 15-20 male mice (Std-ddY strain, 27-33 g) was subjected to training and retention trials for a passive avoidance task in a step-down apparatus (30×30×50 cm) with a grid floor and a wooden platform (4×4×4 cm) in a center of the floor. In the training trial, each mouse was first placed on the platform. When the mouse stepped down on the grid floor, an electric shock (1 Hz, 0.5 sec, 60 VDC) was delivered to the feet for 15 seconds. Immediately after the training trial, cycloheximide (60 mg/kg, s.c.) and a test compound (i.p.) were administered. The retention trial was carried out 24 hours thereafter, the time from placing again each mouse placed on the platform until stepping down on the grid floor (step-down latency) was measured. The step-down latency in the retention trial was markedly shortened by treatment of cycloheximide (amnesia). The effect of test compounds was assessed by % improvement (complete improvement to the latency level of non-dosed animals=100%).

The mark [5] stands for this setting: read-out: 5-HIAA concentration, % of control.
Setting [6] is: read-out: DOPAC concentration, % of control.
[7] abbreviates: read-out: HVA concentration, % of control.
[8] abbreviates: read-out: MOPEG concentration, % of control.

The structures appear in SMILES notation. Read-outs that look alike come from different tables or passages of the source.

T1 sequence (P61169 whole entry): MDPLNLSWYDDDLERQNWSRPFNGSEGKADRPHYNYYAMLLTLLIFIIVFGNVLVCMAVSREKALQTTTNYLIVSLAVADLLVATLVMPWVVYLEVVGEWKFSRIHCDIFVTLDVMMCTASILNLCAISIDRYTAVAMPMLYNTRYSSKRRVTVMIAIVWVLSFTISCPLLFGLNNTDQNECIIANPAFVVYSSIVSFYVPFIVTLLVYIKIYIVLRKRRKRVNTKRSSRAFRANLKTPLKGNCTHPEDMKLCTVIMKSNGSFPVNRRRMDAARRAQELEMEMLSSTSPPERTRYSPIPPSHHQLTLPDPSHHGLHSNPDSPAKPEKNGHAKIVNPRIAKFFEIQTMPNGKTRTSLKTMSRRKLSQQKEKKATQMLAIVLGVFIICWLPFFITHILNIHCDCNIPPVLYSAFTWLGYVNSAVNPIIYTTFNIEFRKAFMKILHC
T2 sequence (P14842 whole entry): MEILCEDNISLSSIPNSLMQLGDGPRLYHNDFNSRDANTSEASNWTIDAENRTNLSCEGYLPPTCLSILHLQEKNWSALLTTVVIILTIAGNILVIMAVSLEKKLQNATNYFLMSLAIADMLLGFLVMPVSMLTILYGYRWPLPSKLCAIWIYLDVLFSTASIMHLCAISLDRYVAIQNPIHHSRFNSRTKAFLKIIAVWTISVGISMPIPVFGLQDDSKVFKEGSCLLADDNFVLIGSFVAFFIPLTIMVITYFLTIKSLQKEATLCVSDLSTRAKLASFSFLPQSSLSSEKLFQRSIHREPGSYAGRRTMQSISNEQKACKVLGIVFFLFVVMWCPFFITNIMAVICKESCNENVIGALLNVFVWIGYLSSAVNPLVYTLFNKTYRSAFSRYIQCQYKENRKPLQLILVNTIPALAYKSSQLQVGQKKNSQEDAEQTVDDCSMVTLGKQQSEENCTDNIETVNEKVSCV

Turning to `CCN1CCN(c2cc(-c3ccc(F)cc3)c3c(n2)CCCCCC3)CC1` [Example 1b, 2-(4-ethyl-1-piperazinyl)-4-(4-fluorophenyl)-5,6,7,8,9,10-hexahydrocycloocta[b]pyridine], the IC50 at dopamine (D2) receptor came out at 46 nM; at serotonin (S2) receptor, 7 nM; on adrenaline (α1) receptor it was 92 nM. Further, the “Inhibitory ratio (exploratory activity)” value in the assay with exploratory activity came out at 83.7%. Also, the inhibition in vivo at 0.3 mg/kg in assay [1] (dose 0.3 mg/kg) amounted to 88%. Moreover, the response vs control in vivo at 1 mg/kg in assay [2] (setting [5]) was 102%; in [2] (setting [6]) it was 235%; in [2] (setting [7]), 212%; in [2] (setting [8]), 118%.

`CCN1CCN(c2cc(-c3ccc(F)cc3F)c3c(n2)CCCCCC3)CC1` [Example 2a, 2-(4-ethyl-1-piperazinyl)-4-(2,4-difluorophenyl)-5,6,7,8,9,10-hexahydrocycloocta[b] pyridine]: the 50% inhibitory concentration (IC50) on dopamine (D2) receptor was 24 nM; at serotonin (S2) receptor, 28 nM; on adrenaline (α1) receptor, 88 nM. Moreover, the “Inhibitory ratio (exploratory activity)” value with exploratory activity came out at 77.5%.

On to `OCCN1CCN(c2cc(-c3ccc(F)cc3)c3c(n2)CCC3)CC1` [Example 7, 2-[4-(2-Hydroxyethyl)-1-piperazinyl]-4-(4-fluoro-phenyl)-6,7-dihydro-5H-1-pyrindine], for which the values for the half-inhibitory concentration (IC50) at dopamine (D2) receptor and on serotonin (S2) receptor were 30 nM and 9.5 nM, respectively. For the same compound, the inhibition in vivo at 1 mg/kg in assay [1] turned out to be 80%.

As for `CCN1CCN(c2cc(-c3ccc(F)cc3)c3c(n2)CCCC3)CC1` [Example 15], the concentration for half-maximal inhibition (IC50) at dopamine (D2) receptor worked out at 58 nM; on serotonin (S2) receptor, 19 nM; at adrenaline (α1) receptor, 35 nM; at serotonin (S1) receptor, 1700 nM. In [1], the inhibition in vivo at 3 mg/kg was found to be 100%. Also, the response vs control in vivo at 10 mg/kg in assay [2] (setting [5]) came to 108%; in assay [2] (setting [6]) it was 277%; in assay [2] (setting [7]), 235%; in assay [2] (setting [8]) it was 118%.

Take `CCN1CCN(c2cc(-c3ccccc3)c3c(n2)CCCCC3)CC1` [Example 23, 2-(4-Ethyl-1-piperazinyl)-4-phenyl-6,7,8,9-tetrahydro-5H-cyclohepta[b]pyridine]: the IC50 on dopamine (D2) receptor was 96 nM; at serotonin (S2) receptor, 7.7 nM; at adrenaline (α1) receptor, 320 nM; on serotonin (S1) receptor, 2900 nM. For the same compound, the response vs control in vivo at 10 mg/kg in assay [2] (setting [5]) is 145%; in [2] (setting [6]), 344%; in assay [2] (setting [7]), 320%; in [2] (setting [8]), 115%.

For `CCN1CCN(c2cc(-c3ccccc3)c3c(n2)C2CCC3C2)CC1` (stereo not drawn) [Example 71], the IC50 came out at 25 nM at dopamine (D2) receptor, 14 nM on serotonin (S2) receptor and 13 nM at adrenaline (α1) receptor. In the assay on exploratory activity, the “Inhibitory ratio (exploratory activity)” value turned out to be 61.9%. Further, the inhibition in vivo at 3 mg/kg in [1] worked out at 84%.

With `CCN1CCN(c2cc(-c3ccc(F)cc3)c3c(n2)C2CCC3C2)CC1` (stereo not drawn) [Example 73], the concentration for half-maximal inhibition (IC50) on dopamine (D2) receptor was 18 nM; on serotonin (S2) receptor, 2.4 nM; on adrenaline (α1) receptor, 4.6 nM. The inhibition in vivo at 1 mg/kg in [1] worked out at 100%.

In the case of `c1ccc(-c2cc(N3CCNCC3)nc3c2CCCC3)cc1` [Example 86, 2-(1-piperazinyl)-4-phenyl-5,6,7,8-tetrahydroquinoline], the half-maximal inhibitory concentration (IC50) stood at 730 nM on dopamine (D2) receptor, 81 nM on serotonin (S2) receptor, 530 nM at adrenaline (α1) receptor and 1400 nM on serotonin (S1) receptor. Further, the “Improvement (spontaneous alternation)” value in assay [3] was 47.6%.

Regarding `Fc1ccc(-c2cc(N3CCNCC3)nc3c2CCCC3)cc1` [Example 92, 2-(1-Piperazinyl)-4-(4-fluorophenyl)-5,6,7,8-tetrahydroquinoline], the IC50 at dopamine (D2) receptor came to 300 nM; on serotonin (S2) receptor, 27 nM; on adrenaline (α1) receptor, 380 nM; at serotonin (S1) receptor, 1900 nM. The “Improvement (step-down latency)” value in assay [4] (dose 2.0 mg/kg i.p.) is given as 44%; in assay [4] (dose 10.0 mg/kg i.p.), 78%. The response vs control in vivo at 10 mg/kg in assay [2] (setting [5]) amounted to 139%; in assay [2] (setting [6]) it was 208%; in assay [2] (setting [7]) it was 192%; in assay [2] (setting [8]), 121%.

In the case of `c1ccc(-c2cc(N3CCNCC3)nc3c2CCCCC3)cc1` [Example 96], the IC50 amounted to 660 nM on dopamine (D2) receptor, 62 nM at serotonin (S2) receptor, 1100 nM at adrenaline (α1) receptor and 4900 nM at serotonin (S1) receptor. Further, the “Improvement (step-down latency)” value in assay [4] (dose 0.5 mg/kg i.p.) is listed as 81%; in assay [4] (dose 2.0 mg/kg i.p.), 64%. Moreover, the response vs control in vivo at 10 mg/kg came to 127% in assay [2] (setting [5]), 201% in assay [2] (setting [6]), 194% in assay [2] (setting [7]) and 115% in [2] (setting [8]).

Consider `c1ccc(-c2cc(N3CCNCC3)nc3c2CCCCCC3)cc1` [Example 103], for which the IC50 on dopamine (D2) receptor was 140 nM; at serotonin (S2) receptor, 41 nM.
